Patent US8133991B2, “Allergen inactivating agent” (Kao Corporation, priority 2002, dated 2012)

What was measured:
[1] = biological target: T1, Dermatophagoides allergen Derf2 (Dermatophagoides farinae, UniProt Q00855); assay: Derf2 sandwich ELISA of mite extract after treatment with sample; format: biochemical; settings: 1% sample solution mixed 1:1 with 0.5 mg/mL mite extract, room temperature 2 hours; distilled water control = 1; lower = more inactivation
T1 construct: purchased Torii Pharmaceutical Co., Ltd; host or cells: mite extract (natural allergen extract)
T1 sequence (Q00855 18-146): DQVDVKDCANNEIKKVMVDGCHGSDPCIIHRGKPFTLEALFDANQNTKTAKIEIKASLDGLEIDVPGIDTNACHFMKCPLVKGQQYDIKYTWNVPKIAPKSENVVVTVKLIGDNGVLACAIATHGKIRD
Experimental: (1) The polysaccharide derivative of the present invention was dissolved in distilled water to prepare 1% solution. Quantity of Dermatophagoides allergen was measured as a typical allergen in the indoor environment by sandwich ELISA using a mouse monoclonal antibody. More specifically, quantity of Dermatophagoides allergen Derf2 was measured by using Derf2 antibody and a labeled antibody manufactured by Asahi Brewery, Ltd.
The allergen inactivation effect is indicated in terms of the ratio in relation to the control wherein the sample was treated in the same way except for the use of distilled water, namely, by assuming the Derf2 quantity in the control as 1.
(2) Scratch extract “mite” (manufactured by Torii Pharmaceutical Co., Ltd.) was placed in a dialysis tube, and dialyzed overnight in 10% PBS (4° C.) to remove glycerol in the extract. […] Quantity of Derf2 in the reaction solution was determined by using anti-Derf2 monoclonal antibody (15E11) and HRP-labeled anti-Derf2 monoclonal antibody (13A4) manufactured by Asahi Brewery, Ltd. in accordance with the protocol attached with the product, and using Derf2 for the Derf2 antigen for depicting the calibration curve.
Quantity of the Derf2 treated with various samples was calculated in relation to the quantity of Derf2 treated with the distilled water, which was assumed to be 1.

[2] = system: Dermatophagoides pteronyssinus; assay: Quidel Allergen Screen: reactivity of immobilized allergen with allergy patient IgE; format: biochemical; settings: 1% sample, 100 μL/stick, room temperature 2 hours; distilled water control = 0
Source text: (§1) Quidel Allergen Screen (manufactured by Xenith Biomed) which is a reagent for detecting antigen-specific IgE antibody by using enzyme-labeled anti-IgE antibody was used to measure the reactivity between the allergen (house dust, Dermatophagoides farinae, Dermatophagoides pteronyssinus, cat epidermis, Cryptomeria japonica, ragweed, and the like) immobilized on a dip stick and the IgE antibody from the allergy patient by the procedure as described below.
(§2) The allergen stick was placed in a wetting box with the pad side facing upward, and the stick was impregnated with the product of the present invention adjusted to 1% at an amount of 100 μL/stick and left at room temperature for 2 hours. Each pad was washed evenly for 30 seconds with physiological saline in a washing bottle, and 50 μL/stick of the serum collected from an allergy patient was added dropwise to the pad and the serum was evenly spread. The wetting box was covered with lid and allowed to stand for 18 hours at room temperature. After the completion of the reaction, the pad was washed evenly for 20 seconds by the physiological saline in a washing bottle.
(§3) About 1 mL of enzyme-labeled anti-IgE antibody was placed in a test tube, and allergen stick is placed in the test tube with the pad facing downward after washing the allergen stick and shaking off the excess water, and the reaction was allowed to take place at room temperature for 30 minutes. After the termination of the reaction, each pad was evenly washed with tap water for 2 minutes. At this occasion, disappearance of the red color on the pad was confirmed. About 1 mL of the substrate solution was poured into test tube, and allergen stick was placed in the test tube with the pad facing downward after washing the allergen stick and shaking off the excess water, and the reaction was allowed to take place at room temperature for 30 minutes. After the completion of the reaction, reaction was terminated by absorbing the water impregnated in the pad with a paper towel by gently patting the pad with the paper towel from the rear side of the pad. Next, intensity of the blue color developed was measured with an image analyzer, and decrease in the reactivity by the product of the present invention was calculated by the following equation by using the color intensity attained when the IgE from allergy patient was used with distilled water treatment for the control.
(§4) Allergen inactivation effect (%)=100−{(IgE reaction intensity when treated by the product of the present invention)−(reaction intensity of the negative control)}/{(IgE reaction intensity of the control treated by distilled water)−(reaction intensity of the negative control)×100

Dermatophagoides farinae = assay: as above; format: biochemical; settings: 1% sample, 100 μL/stick, room temperature 2 hours; distilled water control = 0
Source text: as §1, §2, §3, §4

House dust 1 = assay: as above; format: biochemical; settings: 1% sample, 100 μL/stick, room temperature 2 hours; distilled water control = 0
Source text: as §1, §2, §3, §4

Cat epithelium = assay: as above; format: biochemical; settings: 1% sample, 100 μL/stick, room temperature 2 hours; distilled water control = 0
Source text: as §1, §2, §3, §4

Ceder = assay: as above; format: biochemical, Cryptomeria japonica; settings: 1% sample, 100 μL/stick, room temperature 2 hours; distilled water control = 0
Source text: as §1
The allergen stick was placed in a wetting box with the pad side facing upward, and the stick was impregnated with the product of the present invention adjusted to 1% at an amount of 100 μL/stick and left at room temperature for 2 hours. […]
About 1 mL of enzyme-labeled anti-IgE antibody was placed in a test tube, and allergen stick is placed in the test tube with the pad facing downward after washing the allergen stick and shaking off the excess water, and the reaction was allowed to take place at room temperature for 30 minutes. […] Next, intensity of the blue color developed was measured with an image analyzer, and decrease in the reactivity by the product of the present invention was calculated by the following equation by using the color intensity attained when the IgE from allergy patient was used with distilled water treatment for the control. […]

With `O=C(OC[C@H]1O[C@@H](OC(=O)c2cc(O)c(O)c(OC(=O)c3cc(O)c(O)c(O)c3)c2)[C@H](OC(=O)c2cc(O)c(O)c(OC(=O)c3cc(O)c(O)c(O)c3)c2)[C@@H](OC(=O)c2cc(O)c(O)c(OC(=O)c3cc(O)c(O)c(O)c3)c2)[C@@H]1OC(=O)c1cc(O)c(O)c(OC(=O)c2cc(O)c(O)c(O)c2)c1)c1cc(O)c(O)c(OC(=O)c2cc(O)c(O)c(O)c2)c1` [Tannic acid] the “Quantity of Derf2 (Ratio to the control)” value [1] was 0.2, the “Allergen inactivating effect (%) <Animal allergen> Dermatophagoides pteronyssinus” value [2] was 70% and the “Allergen inactivating effect (%) <Animal allergen> Dermatophagoides farinae” value (Dermatophagoides farinae) was 62%. The “Allergen inactivating effect (%) <Animal allergen> House dust 1” value (House dust 1) was 83%, the “Allergen inactivating effect (%) <Animal allergen> Cat epithelium” value (Cat epithelium) was 92% and the “Allergen inactivating effect (%) <Plant allergen> Ceder” value (Ceder) was 78%.
